Test [1] concerns HCT116 FOPFlash (FOP control vector, non-functional TCF elements). In words: Cellular control reporter assay, HCT116 FOP control vector. Type of test: cell-based. Conditions: Homo sapiens, HCT-116; HCT116 stably transfected with FOP control vector; 36 hours incubation; luciferase expression; dilution series from 50 μM. Here is the method:
(§1) In a parallel approach, HCT116 cells were cotransfected with the FOP control vector and pcDNA3. The FOP vector is identical to the TOP construct, but it contains instead of functional TCF elements a randomized, non-functional sequence. For this transfection a stable transfected cell line was generated as well.
(§2) In preparation of the assay, the two cell lines were plated 24 hours before at 10000 cells per well of a 384 micro titre plate (MTP) in 30 μL growth medium. Selective inhibitory activity for small molecules on the mutated Wnt pathway was determined after parallel incubation of both (TOP and FOP) HCT116 reporter cell lines with a compound dilution series from 50 μM to 15 nM in steps of 3.16-fold dilutions in CAFTY buffer (130 mM NaCl, 5 mM KCl, 20 mM HEPES, 1 mM MgCl2, 5 mM NaHCO3, pH 7.4) containing 2 mM Ca^2+ and 0.01% BSA. The compounds were thereby serially prediluted in 100% DMSO and thereafter in addition 50 fold into the CAFTY compound dilution buffer (described above). From this dilution 10 μL were added to the cells in 30 μL growth medium and incubated for 36 hours at 37° C. and 5% CO2. Thereafter luciferase assay buffer (1:1 mixture of luciferase substrate buffer (20 mM Tricine, 2.67 mM MgSO4, 0.1 mM EDTA, 4 mM DTT, 270 μM Coenzyme A, 470 μM Luciferin, 530 μM ATP, ph adjusted to pH 7.8 with a sufficient volume of 5M NaOH) and Triton buffer (30 mL Triton X-100, 115 mL glycerol, 308 mg Dithiothreitol, 4.45 g Na2HPO4.2H2O, 3.03 g TRIS HCl, ad 1 l H20, pH 7.8) was added as equal volume to the compound solution on the cells to determine luciferase expression as a measure of Wnt signaling activity in a luminometer.
For orientation: A reporter such as luciferase makes a cellular process visible.

The test system of test [2] is constitutive active Wnt pathway (HCT116 TOPFlash). In words: Cellular reporter assay, HCT116 Super TopFlash (constitutive active Wnt pathway). Type of test: cell-based. The settings on record: Homo sapiens, HCT-116; HCT116 stably transfected with Super TopFlash vector; 36 hours incubation; luciferase expression. As to the method: In order to discover and characterize small molecules which inhibit the constitutive active colorectal cancer cell (CRC) Wnt pathway, a cellular reporter assay was employed. The corresponding assay cell was generated by transfection of the colorectal cancer cell line HCT116 (ATCC, #CCL-247) with the Super TopFlash vector (Morin, Science 275, 1997, 1787-1790; Molenaar et al., Cell 86 (3), 1996, 391-399). The HCT116 cell line is cultivated at 37° C. and 5% CO2 in DMEM/F-12 (Life Technologies, #11320-074), supplemented with 2 mM glutamine, 20 mM HEPES, 1.4 mM pyruvate, 0.15% Na-bicarbonate and 10% foetal bovine serum (GIBCO, #10270), this cancer cell line is pathophysiological relevant since it carries a deletion of position S45 in the β-catenin gene, leading to constitutive active Wnt signaling. Stable transfectants were generated by cotransfection with pcDNA3 and selection of stable transfected cells with 1 mg/ml G418.
as §1, §2

In general, IC50 refers to the concentration that inhibits the measured activity by half. Read a low IC50 as greater potency in that assay.

Molecules are shown by their SMILES. Where a name gives a salt, the structure may show the parent alone.

For `O=C(CN1CCOCC1)Nc1cc(NC(=O)c2cnc(-c3ccccc3)cn2)ccc1OC(F)(F)F` [Example 6, N-{3-[(morpholin-4-ylacetyl)amino]-4-(trifluoromethoxy)phenyl}-5-phenylpyrazine-2-carboxamide], the IC50 in test [1] is not below 50000 nM; in test [2], 834 nM.
Consider `CN1CCN(CC(=O)Nc2cc(C(=O)Nc3cnc(-c4ccnc(N)c4)cn3)ccc2OC(F)(F)F)CC1` [Example 56, N-[5-(2-aminopyridin-4-yl)pyrazin-2-yl]-3-{[(4-methylpiperazin-1-yl)acetyl]amino}-4-(trifluoromethoxy)benzamide], for which the values for the IC50 in test [1] and in test [2] were not below 50000 nM and 2000 nM, respectively.
The matching figures for `O=C(CN1CCOCC1)Nc1cc(C(=O)Nc2cnc(-c3ccccn3)cn2)ccc1OC(F)(F)F` [Example 61, 3-[(morpholin-4-ylacetyl)amino]-N-[5-(pyridin-2-yl)pyrazin-2-yl]-4-(trifluoromethoxy)benzamide]: not below 50000 nM and not below 50000 nM.
The matching figures for `CN1CCN(CC(=O)Nc2cc(C(=O)Nc3cnc(-c4cccc(F)c4)cn3)ccc2OC(F)(F)F)CC1` [Example 59, N-[5-(3-fluorophenyl)pyrazin-2-yl]-3-{[(4-methylpiperazin-1-yl)acetyl]amino}-4-(trifluoromethoxy)benzamide]: not below 50000 nM and 3000 nM.
The matching figures for `Nc1ncc(-c2cnc(NC(=O)c3ccc(OC(F)(F)F)c(NC(=O)CN4CCOCC4)c3)cn2)cn1` [Example 53, N-[5-(2-aminopyrimidin-5-yl)pyrazin-2-yl]-3-[(morpholin-4-ylacetyl)amino]-4-(trifluoromethoxy)benzamide]: 9500 nM and 830 nM.
In the case of `Cc1cccc(-c2cnc(NC(=O)c3ccc(OC(F)(F)F)c(NC(=O)CN4CCN(C)CC4)c3)cn2)c1` [Example 32, N-[5-(3-methylphenyl)pyrazin-2-yl]-3-{[(4-methylpiperazin-1-yl)acetyl]amino}-4-(trifluoromethoxy)benzamide], the IC50 is 40000 nM in test [1] and 16700 nM in test [2].
In the case of `O=C(CN1CCOCC1)Nc1cc(C(=O)Nc2cnc(-c3ccncc3)cn2)ccc1OC(F)(F)F` [Example 51, 3-[(morpholin-4-ylacetyl)amino]-N-[5-(pyridin-4-yl)pyrazin-2-yl]-4-(trifluoromethoxy)benzamide], the IC50 in test [1] is not below 50000 nM; in test [2] it was 483 nM.
The matching figures for `CN1CCN(CC(=O)Nc2cc(C(=O)Nc3cnc(-c4cccnc4F)cn3)ccc2OC(F)(F)F)CC1` [Example 36, N-[5-(2-fluoropyridin-3-yl)pyrazin-2-yl]-3-{[(4-methylpiperazin-1-yl)acetyl]amino}-4-(trifluoromethoxy)benzamide hydrochloride]: not below 50000 nM and 120 nM.
The matching figures for `Cc1ccncc1-c1cnc(NC(=O)c2ccc(OC(F)(F)F)c(NC(=O)CN3CCN(C)CC3)c2)cn1` [Example 30, 3-{[(4-methylpiperazin-1-yl)acetyl]amino}-N-[5-(4-methylpyridin-3-yl)pyrazin-2-yl]-4-(trifluoromethoxy)benzamide]: not below 50000 nM and 82 nM.
The matching figures for `O=C(CN1CCOCC1)Nc1cc(C(=O)Nc2ccc(-c3cccnc3F)nn2)ccc1OC(F)(F)F` [Example 17, N-[6-(2-fluoropyridin-3-yl)pyridazin-3-yl]-3-[(morpholin-4-ylacetyl)amino]-4-(trifluoromethoxy)benzamide]: not below 50000 nM and 418 nM.
On to `CN1CCN(CC(=O)Nc2cc(C(=O)Nc3cnc(-c4cnccn4)cn3)ccc2OC(F)(F)F)CC1` [Example 54, N-(2,2′-bipyrazin-5-yl)-3-{[(4-methylpiperazin-1-yl)acetyl]amino}-4-(trifluoromethoxy)benzamide], for which the IC50 is not below 50000 nM in test [1] and 1350 nM in test [2].
The matching figures for `O=C(CN1CCOCC1)Nc1cc(C(=O)Nc2ccc(-c3cccnc3)nn2)ccc1OC(F)(F)F` [Example 14, 3-[(morpholin-4-ylacetyl)amino]-N-[6-(pyridin-3-yl)pyridazin-3-yl]-4-(trifluoromethoxy)benzamide]: not below 50000 nM and 54 nM.
Consider `CN1CCN(CC(=O)Nc2cc(C(=O)Nc3ccc(-c4ccc(N)nc4)nn3)ccc2OC(F)(F)F)CC1` [Example 1, N-[6-(6-aminopyridin-3-yl)pyridazin-3-yl]-3-{[(4-methylpiperazin-1-yl)acetyl]amino}-4-(trifluoromethoxy)benzamide], for which the IC50 in test [1] was not below 50000 nM; in test [2], 24.8 nM.
As for `Nc1ccc(-c2ccc(NC(=O)c3ccc(OC(F)(F)F)c(NC(=O)CN4CCOCC4)c3)nn2)cn1` [Example 16, N-[6-(6-aminopyridin-3-yl)pyridazin-3-yl]-3-[(morpholin-4-ylacetyl)amino]-4-(trifluoromethoxy)benzamide], the IC50 was not below 50000 nM in test [1] and 43.3 nM in test [2].
The corresponding values for `O=C(CN1CCOCC1)Nc1cc(C(=O)Nc2cnc(-c3cccc(Cl)c3)cn2)ccc1OC(F)(F)F` [Example 35, N-[5-(3-chlorophenyl)pyrazin-2-yl]-3-[(morpholin-4-ylacetyl)amino]-4-(trifluoromethoxy)benzamide] are not below 5770 nM and 116 nM.
The corresponding values for `CN1CCN(CC(=O)Nc2cc(C(=O)Nc3ccc(-c4ccccc4)nn3)ccc2OC(F)(F)F)CC1` [Example 9, 3-{[(4-methylpiperazin-1-yl)acetyl]amino}-N-(6-phenylpyridazin-3-yl)-4-(trifluoromethoxy)benzamide] are not below 50000 nM and 29.7 nM.

(Values after patent US20170114070A1, “INHIBITORS OF THE WNT SIGNALLING PATHWAYS” (Bayer Pharma Aktiengesellschaft, priority 2014, published 2017).)
